Patent US20100056637A1, “TREATMENT METHODS USING TRIARYL METHANE COMPOUNDS” (Icagen, Inc., priority 2005, published 2010)
Where two headings read alike, the source gives them in different places.

Legend:
recombinant human KCa3.1 = recombinant human KCa3.1 (Homo sapiens, UniProt O15554); test: Whole patch clamp of potassium currents in CHO cells stably expressing recombinant human KCa3.1; assay type: cell-based; conditions: 1000 nM Senicapoc; FIG. 2 right panel; cell type not stated
[1] = test system: human lung mast cells (HLMC); test: HLMC chemotaxis (mast cell migration) assay, Transwell system; assay type: cell-based; conditions: airway smooth muscle-conditioned media; 10, 100, 1000 nM; 3 hours
Description: Mast cell migration studies were then performed by a method similar to as described in the method of Cruse et al. (Thorax. 2006 61:880-5). Briefly, HLMC chemotaxis assays were performed using the Transwell system with 24 wells. Airway smooth muscle-conditioned media was placed in the lower wells. […] After incubating the cells for 3 hours at 37° C., the number of HLMC in the bottom well were counted using Kimura stain in a hemocytometer. HLMC migration was calculated as the fold increase of migrated cells in the test wells compared with the negative control containing no chemoattractant in the lower well (FIG. 1).

A. suum sensitized sheep = test: Ascaris suum allergen challenge model of asthma in sheep; assay type: in vivo
Description: Briefly, baseline lung resistance (RL) and carbachol concentration response curves were obtained prior to A. suum challenge in sheep. […] Lung resistance was subsequently measured at 0, 1, 2, 3, and 4 hours post allergen challenge to assess early airway responses and at 5, 6, 6.5, 7, 7.5 and 8 hours to assess late airway responses. At 24 hours post challenge, airway hyper-reactivity was determined based on responses to increasing doses of carbachol. Data were analyzed by a one way ANOVA followed by Dunnett's post hoc test when more than 2 groups were compared, or by a t-test when only 2 groups were compared.

[2] = Pharmacokinetics of Senicapoc in sheep plasma; assay type: in vivo; conditions: 30 mg/kg po b.i.d.; relative to levels required to block KCa3.1
Description: Since statistically significant effects were observed on lung resistance and airway hyper-reactivity following the 30 mg/kg dose, this level of exposure is sufficient to achieve efficacy in the sheep model. FIG. 7 illustrates exposure in man following administration of a range of doses. The average efficacious plasma level from the sheep model is illustrated by the dashed line.

[3] = Inhaled allergen challenge in human subjects, placebo vs Senicapoc, 13 days; assay type: in vivo; conditions: for fraction of exhaled nitric oxide: after 13 days of treatment, no change in placebo group
Description: FIG. 9. FIG. 9A study design. […] FIG. 9B. Change in FEV1 over time past allergen challenge (AC) in human subjects. The late allergen response (LAR) is the decline in FEV1 4 to 10 hours after patients were challenged with an inhaled allergen. The magnitude of the decline in LAR is quantified as the area bounded by the baseline FEV1 (0%), and the actual FEV1 measurements between hours 4 and 10. Subjects randomized to 13 days of treatment with placebo had no change in the LAR (left panel). […] By analysis of co-variance, the difference in LAR at Day 13 between the two treatment groups was 29%.
By analysis of co-variance, the difference in late airway responsiveness between the two treatment groups was 29% (see, FIG. 9B). In addition, the fraction of nitric oxide exhaled by Senicapoc-treated group declined with no change seen in the placebo group (data not shown).

Half-life in blood = assay type: in vitro ADME; conditions: including human blood
Source text: Triphenylacetamide-based K^+-channel blockers are promising candidates for the treatment of sickle cell disease (SCD) as discussed in U.S. Pat. No. 6,288,122 which is herein incorporated by reference. In addition, studies indicate that triphenylacetamide-based inhibitors are potential candidate drugs for the treatment of inflammatory conditions.

[4] = cited from earlier work; for mean Cmax / mean total systemic dose / oral clearance rate / terminal half-life: patients with sickle cell disease

SMILES: NC(=O)C(c1ccccc1)(c1ccc(F)cc1)c1ccc(F)cc1 [Senicapoc, 2,2-bis(4-fluorophenyl)-2-phenylacetamide]
- channel inhibition with varied voltage (recombinant human KCa3.1): nearly complete channel inhibition
- HLMC migration resulting from inflammatory stimuli [1]: inhibits
- reversal of the hyper-reactivity to carbachol (A. suum sensitized sheep; 30 mg/kg PO for 4 days): Complete reversal
- apparent reduction in peak early response (A. suum sensitized sheep; 30 mg/kg PO, not statistically significant): 33%
- average late allergen responses (lung resistance) (A. suum sensitized sheep; 5-8 hours after allergen challenge, oral, IV and inhalation routes): significantly attenuates
- hyper-reactivity to aerosolized carbachol (A. suum sensitized sheep; 24 hours post A. suum challenge, all three routes of administration): significantly reduced
- reversal of the hyper-reactivity to carbachol (A. suum sensitized sheep; acute 10 mg/kg IV dosing): Complete reversal
- peak early airway responses (A. suum sensitized sheep; immediately after allergen challenge, 10 mg/kg IV): significantly reduced
- plasma exposure corrected for protein binding [2]: sustained levels significantly above those required to block KCa3.1
- difference in late airway responsiveness (LAR, FEV1 decline 4 to 10 hours) between Senicapoc and placebo groups ([3]; Day 13, 80 mg BID for three days, then 40 mg daily, analysis of co-variance): 29%
- fraction of exhaled nitric oxide [3]: declined
- fraction of exhaled nitric oxide ([3]; listed as senicapoc): decreased
- half-life in blood (Half-life in blood): long half-life
- mean elimination half-life ([4]; oral dose, across three clinical studies, 68 patients): 12 to 17 days
- mean Cmax ([4]; 50 mg single dose): 59.1 ng/mL
- mean total systemic dose ([4]; 50 mg single dose): 11,826 ng·hr/ml
- oral clearance rate ([4]; 50 mg single dose): 4.75 L/h
- terminal half-life ([4]; 50 mg single dose): 15.4 days
- mean Cmax ([4]; 100 mg single dose): 108.7 ng/mL
- mean total systemic dose ([4]; 100 mg single dose): 19,696 ng·hr/ml
- oral clearance rate ([4]; 100 mg single dose): 6.1 L/h
- terminal half-life ([4]; 100 mg single dose): 9.12 days
- mean Cmax ([4]; 150 mg single dose): 109.1 ng/mL
- mean total systemic dose ([4]; 150 mg single dose): 30,675 ng·hr/ml
- oral clearance rate ([4]; 150 mg single dose): 5.8 L/h
- terminal half-life ([4]; 150 mg single dose): 12.4 days
- drug-related serious adverse events ([4]; phase I clinical studies): no drug-related serious adverse events
